Laboratory results published in article PMC8119889, “Computational Identification of a Putative Allosteric Binding Pocket in TMPRSS2” (Frontiers in Molecular Biosciences, 2021).

Target: T1, TMPRSS2 (transmembrane serine protease 2) (Homo sapiens, UniProt O15393)
T1 construct: Recombinant human TMPRSS2 (106-492aa, 6xHisTag)
Test: microscale thermophoresis (His-tag RED-tris-NTA labelled protein, […])
Format: binding

T1 sequence (O15393 106-492): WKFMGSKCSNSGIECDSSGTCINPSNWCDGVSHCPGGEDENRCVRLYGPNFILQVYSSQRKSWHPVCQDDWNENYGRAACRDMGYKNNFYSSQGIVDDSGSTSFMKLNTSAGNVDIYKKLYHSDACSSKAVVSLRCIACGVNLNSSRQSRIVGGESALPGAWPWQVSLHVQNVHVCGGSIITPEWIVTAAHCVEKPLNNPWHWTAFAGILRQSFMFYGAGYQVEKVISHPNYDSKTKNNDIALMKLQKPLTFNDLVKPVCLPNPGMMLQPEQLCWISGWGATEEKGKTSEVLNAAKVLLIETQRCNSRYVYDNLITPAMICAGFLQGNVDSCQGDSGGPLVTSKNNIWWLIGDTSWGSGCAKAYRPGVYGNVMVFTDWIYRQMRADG

SMILES: CN(Cc1cc(Br)cc(Br)c1N)C1CCCCC1 [BH, bromhexine]
- Kd: 24 ± 13 µM
